Reference: patent US9101577B2, “Analgesic pharmaceutical composition for oral administration” (Warszawski Uniwersytet Medyczny, priority 2011, dated 2015)

Key:
Male Wistar rats [1] = assay: Acute activity after single p.o. administration, paw withdrawal test (Randall and Selitto), % of analgesia; format: in vivo, rat; conditions: for analgesic activity on separate administration (codeine study) / analgesic activity / pain perception threshold on separate administration (dihydrocodeine study) / analgesic activity / pain threshold when administered alone (morphine study) / analgesic activity on separate administration (oxycodone study) / analgesic activity on separate administration (tramadol study): single separate administration p.o., magnesium salts 15 mg magnesium ions/kg; for analgesic activity on separate administration (codeine study): codeine 175 mg/kg; for analgesic activity / pain perception threshold on separate administration (dihydrocodeine study): dihydrocodeine 50 mg/kg; for effect on analgesic activity of codeine / activity on codeine analgesia compared to micronized form: 15 mg magnesium ions/kg p.o. with codeine 175 mg/kg p.o.; for effect on morphine analgesia / activity on morphine analgesia in comparison (to micronized magnesium lactate / to micronized form) / enhancement of morphine analgesia lasted up to: 15 mg magnesium ions/kg p.o. with morphine 15 mg/kg p.o.; for analgesic activity / pain threshold when administered alone (morphine study): morphine 15 mg/kg; for analgesic activity on separate administration (oxycodone study): oxycodone 5 mg/kg; for analgesic activity on separate administration (tramadol study): tramadol 125 mg/kg
Description: (§1) Male Wistar rats (250-300 g) were housed in a room maintained at a temperature of 20±2° C. under 12 h-12 h light-dark cycles. The animals had free access to food and water. Experimental groups consisted of six rats.
(§2) Drugs • Morphine at a dose of 15 mg/kg, codeine at a dose of 175 mg/kg, tramadol at a dose of 125 mg/kg and oxycodone at a dose of 5 mg/kg were dissolved in distilled water; • Dihydrocodeine at a dose of 50 mg/kg was suspended in 1% solution of methylcellulose; • Magnesium lactate (in micronized form)—at a dose of 15 mg magnesium ions/kg (150 mg of magnesium lactate/kg) was suspended in 0.5% solution of methylcellulose; • Magnesium lactate in normal (non-micronized) form—at doses of 15 or 30 mg magnesium ions/kg (150 or 300 mg of magnesium lactate/kg, respectively) was suspended in 0.5% solution of methylcellulose; • Magnesium citrate (in micronized and normal form)—at a dose of 15 mg magnesium ions/kg (112 mg of magnesium citrate/kg) was dissolved in distilled water; • Magnesium hydroaspartate (in micronized and normal form)—at a dose of 15 mg magnesium ions/kg (216 mg of magnesium hydroaspartate/kg) was suspended in 0.5% solution of methylcellulose; • Magnesium chloride (in micronized and normal form)—at a dose of 15 mg magnesium ions/kg (59.5 mg of magnesium chloride/kg) was dissolved in distilled water; • Control animals received a 0.5% solution of methylcellulose, a 1% solution of methylcellulose and distilled water, respectively, according to the same time schedule.
Magnesium salts and investigated opioids were administered concomitantly.
The micronized form of magnesium salts used in experiments contains particles of magnesium compounds of size D90<50 μm.
The normal magnesium salts form used in experiments contains particles of sizes commonly available in the market.
Acute activity of investigated drugs was measured in short time periods (from 5 to 300 min) after single administration.
(§3) All drugs were administered per os (p.o.); literally—orally. However, in practice, drugs were administered intragastric via a gastric tube.
(§4) Changes in pain thresholds were determined using a mechanical stimuli—the modification of the classic paw withdrawal test described by Randall and Selitto [1957]. In order to produce mechanical stimulation, progressively increasing pressure was applied to the dorsal surface of the rat's paw using an analgesymeter. The instrument used increased the force on the paw at a rate of 32 grams per second. The nociceptive threshold was defined as force in grams, at which the rat attempted to withdraw its right hindpaw and values of pressure were recorded at this very moment. At least two observers controlled the response.
(§5) Nociceptive thresholds (average of two trials) measured for each animal before single administration of investigated drugs (measurement of acute activity) or in day 0 before the first administration (measurement of prolonged activity) constituted the baseline pain threshold—A. Next, measurements of the withdrawal threshold to mechanical stimuli were performed at 5, 15, 30, 60, 90, 120, 180, 240, 300 min after drug administration (measurements of acute activity) or every day before drug administration (measurements of prolonged activity)—B.
(§6) In all experimental sessions (i.e. every day, each drug investigated) values of thresholds obtained (B) were compared to baseline (A).
(§7) Changes in pain threshold were calculated as a percent of baseline value according to the following formula:
(§8) [formula] • C—% of analgesia; A—pressure (in g), baseline pain threshold; B—pressure (in g) in consecutive measurements.
(§9) Percents of analgesia values calculated as above for individual animals were subsequently used to calculate average values in particular experimental groups and for statistical analysis.
The results are expressed as mean values±standard deviation of the mean (±S.E.M.).

Male Wistar rats [2] = assay: Prolonged activity on repeated daily p.o. administration (7 or 10 days), paw withdrawal test (Randall and Selitto); format: in vivo, rat; conditions: separate administration p.o., magnesium lactate micronized 15 or normal 30 mg magnesium ions/kg
Description: as §1, §2
Prolonged activity of the investigated drugs was measured the following day after initial administration, but before the next administration as well as after cessation of administration. Drugs were administered for seven consecutive days (administration of morphine, codeine, dihydrocodeine, oxycodone) or for ten days (administration of tramadol).
as §3, §4, §5, §6, §7, §8, §9
The results are expressed as mean values±standard […] of the mean (±S.E.M.). The statistical significance of differences between groups was evaluated by Student's t-test. p≦0.05 was accepted as statistically significant.

[3] = single administration, 15 mg magnesium ions/kg p.o. with tramadol 125 mg/kg p.o.
[4] = single administration, 15 mg magnesium ions/kg p.o. with oxycodone 5 mg/kg p.o.
[5] = single administration, 15 mg magnesium ions/kg p.o. with dihydrocodeine 50 mg/kg p.o.

Compound	analgesic activity on separate administration (codeine study) (Male Wistar rats [1])	analgesic activity / pain perception threshold on separate administration (dihydrocodeine study) (Male Wistar rats [1])	analgesic activity / pain threshold when administered alone (morphine study) (Male Wistar rats [1])	analgesic activity on separate administration (oxycodone study) (Male Wistar rats [1])	analgesic activity on separate administration (tramadol study) (Male Wistar rats [1])	activity on dihydrocodeine analgesia in comparison (to micronized form / to magnesium lactate) (Male Wistar rats [1]; [5])	activity on morphine analgesia in comparison (to micronized magnesium lactate / to micronized form) (Male Wistar rats [1]; single administration)	also measured
COc1ccc2c3c1O[C@H]1[C@@H](O)C=C[C@H]4[C@@H](C2)N(C)CC[C@@]341 [codeine, reference compound]	did not exhibit analgesic activity	–	–	–	–	–	–	analgesic activity on separate administration, 7 days (codeine study) (Male Wistar rats [2]; codeine 175 mg/kg): did not exhibit analgesic activity
COc1ccc2c3c1O[C@H]1[C@@H](O)CC[C@H]4[C@@H](C2)N(C)CC[C@@]341 [dihydrocodeine, reference compound]	–	only insignificantly raised the pain perception threshold (90-120 min)	–	–	–	–	–	pain threshold on separate administration, 7 days (dihydrocodeine study) (Male Wistar rats [2]; dihydrocodeine 50 mg/kg): insignificantly raised the nociceptive stimulus threshold on days 6 and 7
[Cl-].[Cl-].[Mg+2] [magnesium chloride, Magnesium chloride]	–	–	–	–	–	–	–	enhancement of tramadol analgesia lasted until (Male Wistar rats [1]; [3]): 90 min; time at which enhancement of tramadol analgesia appeared (Male Wistar rats [1]; [3]): 5 min; time of maximum activity on tramadol analgesia (Male Wistar rats [1]; [3]): 15 min
N[C@@H](CC(=O)[O-])C(=O)[O-].N[C@@H](CC(=O)[O-])C(=O)[O-].[H+].[H+].[Mg+2] [magnesium hydroaspartate, Magnesium hydroaspartate]	–	–	–	–	–	–	–	effect on oxycodone analgesia (Male Wistar rats [1]; [4]): also enhanced oxycodone analgesia
[Cl-].[Cl-].[Mg+2] [micronized magnesium chloride, Magnesium chloride]	did not exhibit analgesic activity	did not exhibit analgesic activity	Neither morphine nor magnesium lactate and chloride in micronized or normal form administered alone showed analgesic activity	showed no analgesic activity	did not exhibit analgesic activity	–	–	effect on analgesic activity of codeine (Male Wistar rats [1]; single administration): significantly enhanced the analgesic activity of codeine; effect on dihydrocodeine analgesia (Male Wistar rats [1]; [5]): significantly enhanced dihydrocodeine analgesia; time course of activity on dihydrocodeine analgesia (Male Wistar rats [1]; [5]): gradually increased and reached a maximum between min 45 and 90 of the measurements and then became weaker by min 210; effect on morphine analgesia (Male Wistar rats [1]; single administration): significantly enhanced morphine analgesia; effect on oxycodone analgesia (Male Wistar rats [1]; [4]): significantly enhanced oxycodone analgesia; time at which activity on oxycodone analgesia appeared (Male Wistar rats [1]; [4]): 5 min; time course of activity on oxycodone analgesia (Male Wistar rats [1]; [4]): maintained at a constant level up to min 30 of the study, then became weaker in min 45 and disappeared in min 60; effect on antinociceptive activity of tramadol (Male Wistar rats [1]; [3]): increased antynociceptive activity of tramadol
N[C@@H](CC(=O)O)C(=O)O [micronized magnesium hydroaspartate, Magnesium hydroaspartate]	did not exhibit analgesic activity	did not exhibit analgesic activity	did not alter the pain threshold	showed no analgesic activity	did not exhibit analgesic activity	lasted a shorter time	weaker, although significant	effect on analgesic activity of codeine (Male Wistar rats [1]; single administration): also enhanced codeine analgesia; effect on dihydrocodeine analgesia (Male Wistar rats [1]; [5]): also enhanced dihydrocodeine analgesia; effect on morphine analgesia (Male Wistar rats [1]; single administration): also enhanced morphine analgesia; enhancement of morphine analgesia lasted up to (Male Wistar rats [1]; single administration): 180 min; activity on tramadol analgesia in comparison (to micronized form / to magnesium chloride) (Male Wistar rats [1]; [3]): weaker throughout the study; effect on antinociceptive activity of tramadol (Male Wistar rats [1]; [3]): also enhanced tramadol analgesia
[Cl-].[Cl-].[Mg+2] [normal magnesium chloride, Magnesium chloride]	–	–	–	–	–	somewhat weaker	–	–
N[C@@H](CC(=O)O)C(=O)O [normal magnesium hydroaspartate, Magnesium hydroaspartate]	did not exhibit analgesic activity	did not exhibit analgesic activity	did not alter the pain threshold	showed no analgesic activity	did not exhibit analgesic activity	significantly weaker	much weaker	activity on codeine analgesia compared to micronized form (Male Wistar rats [1]; single administration): significantly weaker; activity on oxycodone analgesia compared to micronized form (Male Wistar rats [1]; [4]): enhanced oxycodone analgesia significantly less when compared to the micronized form
Magnesium citrate	–	–	–	–	–	–	–	effect on oxycodone analgesia (Male Wistar rats [1]; [4]): also enhanced oxycodone analgesia
Magnesium citrate [micronized magnesium citrate]	did not exhibit analgesic activity	did not exhibit analgesic activity	did not alter the pain threshold	showed no analgesic activity	did not exhibit analgesic activity	lasted a shorter time	weaker, although significant	effect on analgesic activity of codeine (Male Wistar rats [1]; single administration): also enhanced codeine analgesia; effect on dihydrocodeine analgesia (Male Wistar rats [1]; [5]): also enhanced dihydrocodeine analgesia; effect on morphine analgesia (Male Wistar rats [1]; single administration): also enhanced morphine analgesia; enhancement of morphine analgesia lasted up to (Male Wistar rats [1]; single administration): 120 min; effect on antinociceptive activity of tramadol (Male Wistar rats [1]; [3]): also enhanced tramadol analgesia
Magnesium citrate [normal magnesium citrate]	did not exhibit analgesic activity	did not exhibit analgesic activity	did not alter the pain threshold	showed no analgesic activity	did not exhibit analgesic activity	significantly weaker	much weaker	activity on codeine analgesia compared to micronized form (Male Wistar rats [1]; single administration): significantly weaker; activity on oxycodone analgesia compared to micronized form (Male Wistar rats [1]; [4]): enhanced oxycodone analgesia significantly less when compared to the micronized form
